Assay results as given in paper PMC10191551, “Safety, Tolerability, and Pharmacokinetics of Oral Ferric Maltol in Children With Iron Deficiency: Phase 1 Study” (JPGN Reports, 2021).

Assay: Phase 1 study: safety and tolerability (adverse events, vital signs, ECG, laboratory tests, compliance) of oral ferric maltol
Conditions: for Patients With an AE: Any AE: safety population
Text: This phase 1, randomized, open-label, parallel-group pharmacokinetic study involved children seen as outpatients at 6 centers in the UK: Alder Hey Children’s NHS Foundation Trust; King’s College Hospital NHS Foundation Trust; University Hospitals of Leicester NHS Trust; Nottingham University Hospitals NHS Trust; Manchester University NHS Foundation Trust; and University College London Hospitals NHS Foundation Trust. […] Children aged 16 years or older and parents or guardians of children younger than 16 years provided written informed consent to participate before study initiation.
Children aged 10–17 years with confirmed iron deficiency at screening (defined as either ferritin <30 µg/L or ferritin <50 µg/L with transferrin saturation [TSAT] <20%) were eligible for inclusion in the study. Patients with or without anemia could be enrolled, provided hemoglobin was ≥8.5 g/dL at screening. Girls of childbearing potential had to agree to use adequate contraception during and until 4 weeks after the end of the study.
The study comprised a screening period followed by a 10-day randomized treatment period and a post-treatment safety follow-up. Children were randomized 1:1:1 (stratified by age [10–14 vs 15–17 years] and sex) to ferric maltol 7.8 mg, 16.6 mg, or 30 mg twice daily (b.d.) for 9 days and once in the morning of day 10. The first and last doses of ferric maltol were taken in the presence of the investigator. Children took each dose with a glass of water 1 hour before or 2 hours after a meal. Doses were based on daily elemental iron requirements for the broad range of body weights of participants likely to be enrolled, with the aim of finding a minimum effective dose in this age group. The 30 mg b.d. adult dosage was chosen as the highest exposure; dosages of 16.6 mg b.d. and 7.8 mg b.d. were chosen as approximately one-half and one-quarter of the adult dose, respectively, with the exact dose depending on the full fill of available capsule shell sizes.
The primary objectives were to assess iron uptake and ferric maltol pharmacokinetics. Serum iron and TSAT provided measures of iron uptake. In adults, dissociated maltol undergoes rapid glucuronidation and is cleared in urine as maltol glucuronide (36); therefore, in this study, plasma maltol glucuronide was measured to confirm the rate of clearance in children. The secondary objective was to assess the safety and tolerability of ferric maltol in terms of vital signs, AEs, concomitant medications, 12-lead electrocardiograms, and clinical laboratory blood tests.
Safety analyses were conducted in all patients who received at least 1 dose of the study medication and had at least 1 subsequent visit (the safety population). […] Clinically significant changes from baseline in vital signs, physical examination, and routine clinical laboratory abnormalities were also recorded.

Cc1occc(=O)c1[O-].Cc1occc(=O)c1[O-].Cc1occc(=O)c1[O-].[Fe+3] [Ferric maltol]
24%: Children with a TEAE related to the study drug (all doses, N = 37) | Nervous system disorders TEAEs, overall (all doses, N = 37)
2 (5.4) n (%): Patients with a TEAE: Cough (Total, all doses (N = 37)) | Patients with a TEAE: Nausea (Total, all doses (N = 37)) | Patients with a TEAE: Vomiting (Total, all doses (N = 37)) | TEAEs by system organ class: Injury, poisoning, and procedural complications (Total, all doses (N = 37)) | TEAEs by system organ class: Skin and subcutaneous-tissue disorders (Total, all doses (N = 37))
3 n: Drug-related TEAE headache (all doses, N = 37) | TEAE diarrhea, number of children (all doses, N = 37) | TEAE dizziness, number of children (all doses, N = 37)
54.1%: Children who experienced a TEAE (all doses, N = 37, listed as ferric maltol)
9 (24.3) n (%): Patients With an AE: TEAE related to study drug (Total, all doses (N = 37)) | TEAEs by system organ class: Nervous system disorders (Total, all doses (N = 37))
6 (50.0) n (%): TEAEs by system organ class: Gastrointestinal disorders (30 mg b.d. (n = 12))
54%: Children who experienced a TEAE (all doses, N = 37)
5 (41.7) n (%): TEAEs by system organ class: Nervous system disorders (30 mg b.d. (n = 12))
4 (10.8) n (%): Patients with a TEAE: Fatigue (Total, all doses (N = 37)) | TEAEs by system organ class: Respiratory, thoracic, and mediastinal disorders (Total, all doses (N = 37))
2 (16.7) n (%): TEAEs by system organ class: General disorders and administration-site conditions (30 mg b.d. (n = 12))
7 (58.3) n (%): Patients With an AE: Any AE (30 mg b.d. (n = 12))
0 (0.0) n (%): Patients with a TEAE: Skin abrasion (30 mg b.d. (n = 12)) | Patients with a TEAE: Sneezing (30 mg b.d. (n = 12)) | Patients with a TEAE: Tonsillitis (30 mg b.d. (n = 12)) | Patients with a TEAE: Vomiting (30 mg b.d. (n = 12)) | TEAEs by system organ class: Cardiac disorders (30 mg b.d. (n = 12)) | TEAEs by system organ class: Neoplasms benign, malignant, and unspecified (30 mg b.d. (n = 12)) | Patients With an AE: Any SAE (Total, all doses (N = 37))
No patients: Patients with laboratory abnormalities considered as TEAEs or SAEs (all doses)
7 n: TEAE headache, number of children (all doses, N = 37)
mild or moderate: Severity of TEAEs (all doses, all recovered or resolved)
No clinically meaningful changes: Changes from baseline in vital signs or 12-lead electrocardiogram results (all doses)
5 n: Drug-related TEAE feces discoloration (all doses, N = 37) | TEAE fecal discoloration, number of children (all doses, N = 37)
21 (56.8) n (%): Patients With an AE: Any AE (Total, all doses (N = 37))
20 (54.1) n (%): Patients With an AE: Any TEAE (Total, all doses (N = 37))
7 (18.9) n (%): Patients with a TEAE: Headache (Total, all doses (N = 37))
12 (32.4) n (%): TEAEs by system organ class: Gastrointestinal disorders (Total, all doses (N = 37))
1 patient: Drug-related TEAE anal incontinence (all doses, N = 37) | Drug-related TEAE constipation (all doses, N = 37) | Drug-related TEAE dyspepsia (all doses, N = 37) | Drug-related TEAE dyspnea (all doses, N = 37) | Drug-related TEAE lethargy (all doses, N = 37) | Drug-related TEAE nausea (all doses, N = 37) | Drug-related TEAE palpitations (all doses, N = 37) | Drug-related TEAE papule (all doses, N = 37)
5 (13.5) n (%): Patients with a TEAE: Feces discolored (Total, all doses (N = 37)) | TEAEs by system organ class: General disorders and administration-site conditions (Total, all doses (N = 37))
2 n: Drug-related TEAE diarrhea (all doses, N = 37) | Drug-related TEAE dizziness (all doses, N = 37) | Drug-related TEAE fatigue (all doses, N = 37) | TEAE nausea, number of children (all doses, N = 37) | TEAE vomiting, number of children (all doses, N = 37)
no deaths or SAEs: Deaths or SAEs (all doses, N = 37)
1 n: TEAE abdominal distension, number of children (all doses, N = 37) | TEAE abdominal pain, number of children (all doses, N = 37) | TEAE anal incontinence, number of children (all doses, N = 37) | TEAE constipation, number of children (all doses, N = 37) | TEAE dyspepsia, number of children (all doses, N = 37) | TEAE lethargy, number of children (all doses, N = 37)
3 (8.1) n (%): Patients with a TEAE: Diarrhea (Total, all doses (N = 37)) | Patients with a TEAE: Dizziness (Total, all doses (N = 37))
1 (2.7) n (%): Patients With an AE: TEAE leading to study discontinuation (Total, all doses (N = 37)) | Patients with a TEAE: Abdominal distension (Total, all doses (N = 37)) | Patients with a TEAE: Abdominal pain (Total, all doses (N = 37)) | Patients with a TEAE: Anal incontinence (Total, all doses (N = 37)) | Patients with a TEAE: Cellulitis (Total, all doses (N = 37)) | Patients with a TEAE: Constipation (Total, all doses (N = 37)) | Patients with a TEAE: Dyspepsia (Total, all doses (N = 37)) | Patients with a TEAE: Dyspnea (Total, all doses (N = 37)) | Patients with a TEAE: Granuloma skin (Total, all doses (N = 37)) | Patients with a TEAE: Injection-site pain (Total, all doses (N = 37)) | Patients with a TEAE: Lethargy (Total, all doses (N = 37)) | Patients with a TEAE: Ligament sprain (Total, all doses (N = 37)) | Patients with a TEAE: Lip dry (Total, all doses (N = 37)) | Patients with a TEAE: Nasal congestion (Total, all doses (N = 37)) | Patients with a TEAE: Nasopharyngitis (Total, all doses (N = 37)) | Patients with a TEAE: Nevus hemorrhage (Total, all doses (N = 37)) | Patients with a TEAE: Palpitations (Total, all doses (N = 37)) | Patients with a TEAE: Papule (Total, all doses (N = 37)) | Patients with a TEAE: Pyrexia (Total, all doses (N = 37)) | Patients with a TEAE: Skin abrasion (Total, all doses (N = 37)) | Patients with a TEAE: Sneezing (Total, all doses (N = 37)) | Patients with a TEAE: Tonsillitis (Total, all doses (N = 37)) | TEAEs by system organ class: Cardiac disorders (Total, all doses (N = 37)) | TEAEs by system organ class: Neoplasms benign, malignant, and unspecified (Total, all doses (N = 37))
32%: Gastrointestinal TEAEs, overall (all doses, N = 37)
1 (8.3) n (%): Patients with a TEAE: Papule (30 mg b.d. (n = 12)) | Patients with a TEAE: Pyrexia (30 mg b.d. (n = 12)) | TEAEs by system organ class: Injury, poisoning, and procedural complications (30 mg b.d. (n = 12)) | TEAEs by system organ class: Respiratory, thoracic, and mediastinal disorders (30 mg b.d. (n = 12)) | TEAEs by system organ class: Skin and subcutaneous-tissue disorders (30 mg b.d. (n = 12))
